# In ChEMBL document CHEMBL5674860, “Optimized Dual-Glo Assay to identify co-culture-induced drug vulnerabilities in 3D CRC models” (2024):
# Columns and labels:
# Type in all cases: functional, Homo sapiens
# Set-up in all cases: dose or concentration left out as unconfirmed
# Colon cancer organoid [1] = assay: Optimized Dual-Glo assay to identify co-culture induced drug vulnerabilities using donated chemical probes and chemogenomics kinase set in O06 CRC organoid and F06 CAF mono and co-culture. […] Cell viability is reported both mono and co-culture models.
# Colon cancer organoid [2] = assay: Optimized Dual-Glo assay to identify co-culture induced drug vulnerabilities using donated chemical probes and chemogenomics kinase set in O14 CRC organoid and F14 CAF mono and co-culture. […] Cell viability is reported both mono and co-culture models.
# Colon cancer organoid [3] = assay: Optimized Dual-Glo assay to identify co-culture induced drug vulnerabilities using donated chemical probes and chemogenomics kinase set in O20 CRC organoid and F20 CAF mono and co-culture. […] Cell viability is reported both mono and co-culture models.
# [4] = Culture type Co-Culture, Transduced with Lucferase2-P2A-EGFP lentivirus
# [5] = Culture type Co-Culture, Transduced with Renilla-dsRed lentivirus
# [6] = Culture type Mono-Culture, Transduced with Lucferase2-P2A-EGFP lentivirus
# [7] = Culture type Mono-Culture, Transduced with Renilla-dsRed lentivirus
SMILES,Cell Viability (Colon cancer organoid [1]; [4]) [%],Cell Viability (Colon cancer organoid [1]; [5]) [%],Cell Viability (Colon cancer organoid [1]; [6]) [%],Cell Viability (Colon cancer organoid [1]; [7]) [%],Cell Viability (Colon cancer organoid [2]; [4]) [%],Cell Viability (Colon cancer organoid [2]; [5]) [%],Cell Viability (Colon cancer organoid [2]; [6]) [%],Cell Viability (Colon cancer organoid [2]; [7]) [%],Cell Viability (Colon cancer organoid [3]; [4]) [%],Cell Viability (Colon cancer organoid [3]; [5]) [%],Cell Viability (Colon cancer organoid [3]; [6]) [%],Cell Viability (Colon cancer organoid [3]; [7]) [%]
CC(=O)NCC(=O)N1[C@@H]2CC[C@H]1c1ccc(Nc3ncc(C(F)(F)F)c(NC4CCC4)n3)cc12 [PF-03814735],12.5382,132.747,7.137,42.3421,21.4424,92.7993,23.2786,69.2613,4.585,155.761,7.993,63.4074
OCCn1cc(-c2cnc3nnn(Cc4ccc5ncccc5c4)c3n2)cn1 [PF-04217903],88.0795,107.387,104.073,94.3108,71.8183,123.95,91.8486,91.0833,121.611,97.2338,113.154,101.829
C[C@H](c1ccc(F)cc1)N(Cc1cccc(C(=O)O)c1)C(=O)c1cnc2ccccc2c1 [PF-05105679],133.625,152.049,106.722,91.4083,81.4426,118.111,74.3119,99.7573,143.937,111.508,109.64,98.1235
C[C@H](c1ccc(F)cc1)N(Cc1ccc(Cl)c(C(=O)O)c1)C(=O)c1cnc2ccccc2c1 [PF-05257137],116.801,128.047,124.519,88.8687,77.6621,111.229,120.37,101.269,147.232,103.742,109.057,106.822
COc1ncc(F)cc1CNc1ccc(Cc2c[nH]c3ncc(C)cc23)c(F)n1 [PLX-5622],82.7626,63.3822,93.414,61.0678,95.8839,46.3569,130.226,44.2586,205.726,55.6932,133.198,66.7491
Cc1noc(C)c1-c1cnc2c(-c3ccc(C(=O)O)cc3)cn([C@@H](C)c3ccccn3)c2c1 [PLX-51107],26.8486,312.702,23.3668,265.011,32.5617,348.195,30.1969,207.472,17.6563,177.825,24.073,120.563
Cn1cc(CNCC2CCN(c3ncc(C(=O)NO)cn3)CC2)c2ccccc21 [QUISINOSTAT],1.095,190.694,6.147,20.2291,0.9193,88.4975,0.7655,72.0368,1.342,37.1921,2.078,3.907
CC(C)(C)c1cc(NC(=O)Nc2ccc(-c3cn4c(n3)sc3cc(OCCN5CCOCC5)ccc34)cc2)no1 [QUIZARTINIB],26.1053,134.448,20.7828,88.706,40.6861,210.95,46.4384,89.2922,58.7644,111.29,48.0043,98.7475
CN(C)C(=O)c1cc2cnc(Nc3ccc(N4CCNCC4)cn3)nc2n1C1CCCC1 [RIBOCICLIB],54.2961,126.231,30.4641,111.56,59.6816,144.098,62.61,96.4403,36.9577,144.514,20.5669,95.5583
O=C(CCCCCCNC(=O)c1cnc(N(c2ccccc2)c2ccccc2)nc1)NO [RICOLINOSTAT],80.064,143.43,66.4985,158.366,162.049,119.991,164.32,101.457,158.742,130.22,89.6658,107.525
C=CC(=O)Nc1ccc2[nH]c(=O)n(C3CCN(Cc4ccc(-c5ccc6c(c5)NC(=O)CO6)cc4)CC3)c2c1 [RL2578],88.4189,104.707,87.6184,83.8435,109.086,76.9187,101.444,81.1144,101.172,98.7435,76.3776,83.481
CN(C)CCOc1ccc(-c2nc(-c3ccncc3)c(-c3ccc4c(c3)CC/C4=N\O)[nH]2)cc1 [SB590885],79.2379,96.48,138.873,135.694,125.618,131.894,138.834,91.3736,155.192,68.1541,66.5679,111.294
CC[C@H](CO)Nc1nc(NCc2ccccc2)c2ncn(C(C)C)c2n1 [SELICICLIB],93.234,112.199,108.084,105.93,135.109,107.454,106.101,84.912,126.322,75.3934,94.0529,97.9285
C[C@@H]1CCc2ncc(F)cc2[C@H]2CCCN2c2ccn3ncc(c3n2)C(=O)N1 [SELITRECTINIB],101.733,118.761,174.799,120.583,80.4223,107.034,125.619,100.351,166.265,73.3915,102.231,92.0834
Cc1cc(F)c(C(=O)Nc2cccc(-c3nncn3C(C)C)n2)cc1-n1cnc(C2CC2)c1 [SELONSERTIB],89.6649,105.018,105.834,92.1767,131.466,127.666,127.2,83.0493,141.674,89.2485,97.5113,87.9562
Cn1cnc2c(F)c(Nc3ccc(Br)cc3Cl)c(C(=O)NOCCO)cc21 [SELUMETINIB],107.697,90.3962,52.8036,90.0191,41.0506,90.7653,35.0637,76.2393,54.0546,152.417,80.7355,77.3788
O=C(O)c1ccc2c(c1)nc(Nc1cccc(Cl)c1)c1ccncc12 [SILMITASERTIB],108.166,80.6873,78.7074,100.788,93.7278,109.514,89.7197,119.06,158.738,81.7658,95.6239,79.8512
N#Cc1cnc(Nc2cc(NC[C@H]3CNCCO3)c(C(F)(F)F)cn2)cn1 [SRA-737],89.9461,120.027,70.513,117.124,41.9223,191.286,52.6101,101.86,103.278,133.202,58.7772,96.135
